Test results as given in ChEMBL document CHEMBL6103552, “Identification of peptide-based hepatitis B virus capsid inhibitors based on the viral core protein” (Bioorg Med Chem Lett, 2025).
The source made the active and inactive calls. No rule for the calls is given here.

molecular target: Core antigen (Hepatitis B virus) (UniProt Q03732); experiment: Inhibition of Hepatitis B virus capsid formation at 100 uM treated during cell-free wild type HBV Cp synthesis using wheat germ lysates and HBV Cp RNA by Native capsid assay based western blot analysis; assay type: subcellular
Sequence (Q03732 as listed by the source): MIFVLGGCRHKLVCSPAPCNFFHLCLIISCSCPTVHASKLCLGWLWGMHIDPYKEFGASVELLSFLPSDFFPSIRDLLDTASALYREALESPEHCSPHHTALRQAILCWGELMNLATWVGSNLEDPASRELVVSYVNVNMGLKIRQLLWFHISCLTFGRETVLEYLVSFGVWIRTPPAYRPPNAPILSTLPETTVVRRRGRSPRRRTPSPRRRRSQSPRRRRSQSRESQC

Compound	inhibition
CC(C)C[C@H](NC(=O)[C@H](CC(C)C)NC(=O)[C@H](CCC(=O)O)NC(=O)[C@@H](NC(=O)[C@H](CO)NC(=O)[C@H](C)N)C(C)C)C(=O)N[C@@H](CO)C(=O)N[C@@H](Cc1ccccc1)C(=O)N[C@@H](CC(C)C)C(=O)N1CCC[C@H]1C(=O)N[C@@H](CO)C(=O)N[C@@H](CC(=O)O)C(=O)N[C@@H](Cc1ccccc1)C(=O)N[C@@H](Cc1ccccc1)C(=O)N1CCC[C@H]1C(N)=O	inactive
CC(C)C[C@H](NC(=O)[C@H](CC(C)C)NC(=O)[C@H](CCC(=O)O)NC(=O)[C@@H](NC(=O)[C@H](CO)NC(=O)[C@H](C)NC(=O)CNC(=O)[C@H](Cc1ccccc1)NC(=O)[C@H](CCC(=O)O)NC(=O)[C@H](CCCCN)NC(=O)[C@@H](N)Cc1ccc(O)cc1)C(C)C)C(=O)N[C@@H](CO)C(=O)N[C@@H](Cc1ccccc1)C(=O)N[C@@H](CC(C)C)C(=O)N1CCC[C@H]1C(N)=O	inactive
CC(C)C[C@H](NC(=O)[C@H](CC(N)=O)NC(=O)[C@H](CO)NC(=O)CNC(=O)[C@@H](NC(=O)[C@@H](N)Cc1c[nH]c2ccccc12)C(C)C)C(=O)N[C@@H](CCC(=O)O)C(=O)N[C@@H](CC(=O)O)C(=O)N1CCC[C@H]1C(=O)N[C@@H](C)C(=O)N[C@@H](CO)C(=O)N[C@@H](CCCNC(=N)N)C(=O)N[C@@H](CCC(=O)O)C(=O)N[C@@H](CC(C)C)C(=O)N[C@H](C(N)=O)C(C)C	inactive
CC(C)C[C@H](NC(=O)[C@H](CCC(=O)O)NC(=O)[C@H](CCCNC(=N)N)NC(=O)[C@H](CO)NC(=O)[C@H](C)NC(=O)[C@@H]1CCCN1C(=O)[C@H](CC(=O)O)NC(=O)[C@H](CCC(=O)O)NC(=O)[C@@H](N)CC(C)C)C(=O)N[C@H](C(=O)N[C@H](C(=O)N[C@@H](CO)C(=O)N[C@@H](Cc1ccc(O)cc1)C(=O)N[C@H](C(=O)N[C@@H](CC(N)=O)C(N)=O)C(C)C)C(C)C)C(C)C	inactive
CC[C@H](C)[C@H](NC(=O)[C@@H](N)CO)C(=O)N[C@@H](CCCNC(=N)N)C(=O)N[C@@H](CC(=O)O)C(=O)N[C@@H](CC(C)C)C(=O)N[C@@H](CC(C)C)C(=O)N[C@@H](CC(=O)O)C(=O)N[C@H](C(=O)N[C@@H](C)C(=O)N[C@@H](CO)C(=O)N[C@@H](C)C(=O)N[C@@H](CC(C)C)C(=O)N[C@@H](Cc1ccc(O)cc1)C(=O)N[C@@H](CCCNC(=N)N)C(=O)N[C@@H](CCC(=O)O)C(N)=O)[C@@H](C)O	inactive
CC[C@H](C)[C@H](NC(=O)[C@@H]1CCCN1C(=O)[C@H](C)NC(=O)[C@@H](N)CC(N)=O)C(=O)N[C@@H](CC(C)C)C(=O)N[C@@H](CO)C(=O)N[C@H](C(=O)N[C@@H](CC(C)C)C(=O)N1CCC[C@H]1C(=O)N[C@@H](CCC(=O)O)C(=O)N[C@H](C(=O)N[C@H](C(=O)N[C@H](C(=O)N[C@H](C(=O)N[C@@H](CCCNC(=N)N)C(N)=O)C(C)C)C(C)C)[C@@H](C)O)[C@@H](C)O)[C@@H](C)O	inactive
CC[C@H](C)[C@H](NC(=O)[C@H](C)NC(=O)[C@H](CCC(N)=O)NC(=O)[C@@H]1CCCN1)C(=O)N[C@@H](CC(C)C)C(=O)N[C@@H](CS)C(=O)N[C@@H](Cc1c[nH]c2ccccc12)C(=O)NCC(=O)N[C@@H](CCC(=O)O)C(=O)N[C@@H](CC(C)C)C(=O)N[C@@H](CCSC)C(=O)N[C@@H](CC(N)=O)C(=O)N[C@@H](CC(C)C)C(=O)N[C@@H](C)C(=O)N[C@H](C(N)=O)[C@@H](C)O	inactive
CC[C@H](C)[C@H](NC(=O)[C@H](CC(=O)O)NC(=O)[C@@H](N)CCSC)C(=O)N[C@@H](CC(=O)O)C(=O)N1CCC[C@H]1C(=O)N[C@@H](Cc1ccc(O)cc1)C(=O)N[C@@H](CCCCN)C(=O)N[C@@H](CCC(=O)O)C(=O)N[C@@H](Cc1ccccc1)C(=O)NCC(=O)N[C@@H](C)C(=O)N[C@@H](CO)C(=O)N[C@H](C(=O)N[C@@H](CCC(=O)O)C(=O)N[C@@H](CC(C)C)C(N)=O)C(C)C	inactive
CC[C@H](C)[C@H](NC(=O)[C@H](CO)NC(=O)[C@@H]1CCCN1C(=O)[C@H](Cc1ccccc1)NC(=O)[C@H](Cc1ccccc1)NC(=O)[C@H](CC(=O)O)NC(=O)[C@@H](N)CO)C(=O)N[C@@H](CCCNC(=N)N)C(=O)N[C@@H](CC(=O)O)C(=O)N[C@@H](CC(C)C)C(=O)N[C@@H](CC(C)C)C(=O)N[C@@H](CC(=O)O)C(=O)N[C@H](C(=O)N[C@@H](C)C(=O)N[C@@H](CO)C(N)=O)[C@@H](C)O	inactive
CC[C@H](C)[C@H](NC(=O)[C@H](CO)NC(=O)[C@@H]1CCCN1C(=O)[C@H](Cc1ccccc1)NC(=O)[C@H](Cc1ccccc1)NC(=O)[C@H](CC(=O)O)NC(=O)[C@H](CO)NC(=O)[C@@H]1CCCN1C(=O)[C@H](CC(C)C)NC(=O)[C@H](Cc1ccccc1)NC(=O)[C@H](CO)NC(=O)[C@@H](N)CC(C)C)C(=O)N[C@@H](CCCNC(=N)N)C(=O)N[C@@H](CC(=O)O)C(=O)N[C@@H](CC(C)C)C(N)=O	inactive
CC[C@H](C)[C@H](NC(=O)[C@H](Cc1c[nH]c2ccccc12)NC(=O)[C@@H](NC(=O)CNC(=O)[C@H](Cc1ccccc1)NC(=O)[C@@H](N)CO)C(C)C)C(=O)N[C@@H](CCCNC(=N)N)C(=O)N[C@H](C(=O)N1CCC[C@H]1C(=O)N1CCC[C@H]1C(=O)N[C@@H](C)C(=O)N[C@@H](Cc1ccc(O)cc1)C(=O)N[C@@H](CCCNC(=N)N)C(=O)N1CCC[C@H]1C(=O)N1CCC[C@H]1C(N)=O)[C@@H](C)O	inactive
CC[C@H](C)[C@H](NC(=O)[C@H](Cc1c[nH]cn1)NC(=O)[C@H](Cc1ccccc1)NC(=O)[C@H](Cc1c[nH]c2ccccc12)NC(=O)[C@H](CC(C)C)NC(=O)[C@H](CC(C)C)NC(=O)[C@H](CCC(N)=O)NC(=O)[C@H](CCCNC(=N)N)NC(=O)[C@H](Cc1ccccc1)NC(=O)[C@H](CCCCN)NC(=O)[C@H](CC(C)C)NC(=O)CNC(=O)[C@H](CCSC)NC(=O)[C@H](CC(N)=O)NC(=O)[C@@H](N)C(C)C)C(N)=O	inactive
CSCC[C@H](N)C(=O)N[C@@H](CC(N)=O)C(=O)N[C@@H](CC(C)C)C(=O)N[C@@H](C)C(=O)N[C@H](C(=O)N[C@@H](Cc1c[nH]c2ccccc12)C(=O)N[C@H](C(=O)NCC(=O)N[C@@H](CO)C(=O)N[C@@H](CC(N)=O)C(=O)N[C@@H](CC(C)C)C(=O)N[C@@H](CCC(=O)O)C(=O)N[C@@H](CC(=O)O)C(=O)N1CCC[C@H]1C(=O)N[C@@H](C)C(N)=O)C(C)C)[C@@H](C)O	inactive
CSCC[C@H](NC(=O)[C@H](CC(C)C)NC(=O)[C@H](CCC(=O)O)NC(=O)CNC(=O)[C@H](Cc1c[nH]c2ccccc12)NC(=O)[C@@H](N)CS)C(=O)N[C@@H](CC(N)=O)C(=O)N[C@@H](CC(C)C)C(=O)N[C@@H](C)C(=O)N[C@H](C(=O)N[C@@H](Cc1c[nH]c2ccccc12)C(=O)N[C@H](C(=O)NCC(=O)N[C@@H](CO)C(=O)N[C@@H](CC(N)=O)C(N)=O)C(C)C)[C@@H](C)O	inactive
CSCC[C@H](NC(=O)[C@H](CC(N)=O)NC(=O)[C@@H](NC(=O)[C@H](CC(N)=O)NC(=O)[C@@H](NC(=O)[C@H](Cc1ccc(O)cc1)NC(=O)[C@H](CO)NC(=O)[C@@H](NC(=O)[C@@H](NC(=O)[C@H](CC(C)C)NC(=O)[C@H](CCC(=O)O)NC(=O)[C@H](CCCNC(=N)N)NC(=O)[C@@H](N)CO)C(C)C)C(C)C)C(C)C)C(C)C)C(=O)NCC(=O)N[C@@H](CC(C)C)C(N)=O	inactive
